What was measured:
Type in all cases: physicochemical
[1] = PTR-MS headspace release at various flavor compound to 1,3-propanediol or PG ratios (Example 2); details: for release suppressed in the presence of 1,3-propanediol: 10% cut-off for significant difference, relative to PG; for Percent Suppression by 1,3-propanediol: (IZ−IPG)/IPG×100
Procedure: The compounds listed below in Table 3 were added together to provide a liquid flavoring to analyze the role, if any, of the amount of 1,3-propanediol on flavor release. […] The amount of each flavor compound in the beverage was held constant at 8 ppm except furfuryl mercaptan was included at 1.6 ppm while the amount of propylene glycol or 1,3-propanediol varied.
The percent suppression was calculated using the following formula: (IZ−IPG)/IPG×100, where I is peak height, “Z” is 1,3-propanediol and “PG” is propylene glycol.

[2] = PTR-MS headspace release from stored beverages, water/solvent experiment (Example 4); details: beverage stored refrigerated; 1.5, 24, 48 and 72 hours; Tukey-Kramer
Procedure: 0.86 grams of the flavor concentrate was then added to 100 grams of either propylene glycol or 1,3-propanediol to provide diluted concentrates. […].
The beverages were then stored in sealed containers in a refrigerator. The container was opened five times over the course of the experiment and therefore represented a beverage in a sealed container being opened for multiple uses. 15 gram samples were weighed into a 4 ounce cup and analyzed at 1.5 hours, 24 hours, 48 hours, and 72 hours after storage.
The samples were analyzed in triplicate by PTR-MS as described below to determine impact of 1,3-propanediol or propylene glycol on release of the flavors from the beverage. The PTR-MS was performed as follows. A sampling apparatus was needed in conjunction with the PTR-MS inlet to prevent variations caused by headspace kinetics. The sampling apparatus used includes a 4 ounce sample vessel equipped with a 2-hole lid which may be sealed by an adhesive film to allow equilibration. […]. The holes were equal sized (˜2 mm diameter) and match the outer diameter of the PTR-MS inlet line. The flow of the dilution gas into the vessel was regulated by the vacuum and proportional valve of the PTR-MS inlet system. […] The 2 holes in the lid were equidistant from the edge of the vessel (˜20 mm) and ˜30 mm from each other. The PTR-MS inlet was braced by clamps in a fixed position vertically above the laboratory bench (˜55 mm) and a silicone rubber depth gauge was affixed to the PTR-MS inlet tubing and set at 18 mm. The PTR-MS inlet was consistently oriented in a vertical position […] below the inside lid of the vessel and 19 mm above the sample in the vessel. The sample vessel was then held in place during sampling according to the depth gauge on the inlet line and the vessel was subsequently supported on the bench by a 10 mm plastic spacer.
15 grams of the sample to be tested (e.g., food or beverage product containing 1,3-propanediol) are added to the vessel and the vessel is sealed and allowed to equilibrate at room temperature (˜22° C.) for 90 minutes. At the time of sampling, the seal was removed from both the sampling hole and the dilution gas hole in the lid and the vessel was immediately affixed to the PTR-MS inlet via the sampling hole. The real-time released flavor was measured from the headspace of the sample vessel for two minutes (according to the conditions listed in Table 1 above).
The data was analyzed using PTR-MS Viewer, Version 3.0.0.101 (Ionicon Analytik G.m.b.H). The point of maximum intensity for each compound of interest was determined and recorded according to the PTR-MS Viewer software. The maximum intensity in counts over the timescale for each compound of interest was used for data analysis as it reflected the static equilibrium headspace concentration in the system at the moment of seal removal. Due to the necessity of a dilution gas, the volatile concentration decreased over time as the compounds of interest re-equilibrated to a state of dynamic equilibrium in the headspace.
The statistical differences were determined by Tukey-Kramer Honest […]. […].

[3] = PTR-MS headspace release with various non-aqueous liquids (diols) at 0.05:100 (Example 3); details: ratio 0.05:100; for PTR-MS headspace release in 1,3-butanediol: non-aqueous liquid 1,3-butanediol; for PTR-MS headspace release in 1,3-butanediol / PTR-MS headspace release in 1,3-propanediol / PTR-MS headspace release in 1,4-butanediol / PTR-MS headspace release in 1,7-heptanediol / PTR-MS headspace release in Propylene glycol: diluted in water; for PTR-MS headspace release in 1,3-propanediol: non-aqueous liquid 1,3-propanediol; for PTR-MS headspace release in 1,4-butanediol: non-aqueous liquid 1,4-butanediol; for PTR-MS headspace release in 1,7-heptanediol: non-aqueous liquid 1,7-heptanediol; for PTR-MS headspace release in Propylene glycol: non-aqueous liquid propylene glycol
Procedure: […]. The flavoring was then diluted in water for analysis. The final concentration of each compound was held constant at 8 ppm except furfuryl mercaptan was included at 1.6 ppm to maintain a constant flavor level in the resulting beverage while the non-aqueous liquid varied but the ratio of each compound to non-aqueous liquid was held constant at 0.05:100. A variety of non-aqueous liquids were evaluated, including 1,4-butandiol; 1,7-heptandiol; 1,3-butandiol, propylene glycol, and 1,3-propanediol.
Samples were analyzed by PTR-MS as described in Example 1.
Percent suppression was calculated by the following formula: (I1-3-diol−Ialternate diol)/Ialternate diol×100.

[4] = ratio 0.005:100, negative = suppressed vs PG

Compound	release suppressed in the presence of 1,3-propanediol [1]	effect of 1,3-propanediol on release ([1]; flavor/1,3-propanediol ratio of 0.05:100 and 5:100)	Percent Suppression by 1,3-propanediol [1, 4] [%]	Percent Suppression by 1,3-propanediol ([1]; ratio 0.05:100) [%]	Percent Suppression by 1,3-propanediol ([1]; ratio 5:100) [%]	Percent Suppression by 1,3-propanediol ([1]; ratio 15:100) [%]	effect of 1,3-propanediol on flavor release relative to propylene glycol, water/solvent [2]	PTR-MS headspace release in 1,3-butanediol [3]	PTR-MS headspace release in 1,3-propanediol [3]	PTR-MS headspace release in 1,4-butanediol [3]	PTR-MS headspace release in 1,7-heptanediol [3]	PTR-MS headspace release in Propylene glycol [3]	Percent suppression by 1,3-butanediol relative to 1,4-butanediol [3] [%]	effect of 1,3-propanediol on release ([1]; flavor/1,3-propanediol ratio of 0.005:100, 0.05:100, and 5:100)	effect of 1,3-propanediol on release ([1]; ratio 0.005:100)
O=Cc1ccccc1 [Benzaldehyde]	suppressed	significant suppression effect	−0.5	−90.3	−40.6	−16.2	significantly suppressed release	250.0	13.20	354.0	357.5	136.25	−41.6	–	–
CCCC(=O)OCC [Ethyl butyrate]	–	–	3.2	14.9	−21.8	−3.3	little effect	141.5	46.20	239.3	223.5	40.20	−69.10	–	–
CC=O [Acetaldehyde]	suppressed	–	−22.1	−37.3	−57.4	64.5	released faster in propylene glycol	157.0	104.00	196.5	206.5	165.85	−25.2	significant suppression effect	still suppressed
